Reference: PubChem BioAssay AID328 (DTP/NCI, 2004)
Toxic doses and inconclusive results are not listed. Rule for the calls: active = survival T/C of 150% or more; inactive = T/C below 125% in these data.

Test system: BDF1 mice, P388 leukemia ip, median survival T/C
Test: NCI In Vivo Anticancer Drug Screen. Data for tumor model P388 Leukemia (intraperitoneal) in B6D2F1 (BDF1) mice
Conditions: endpoint: median survival time, higher = longer survival
Procedure, shortened: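 In tumour-bearing mice, survival after compound treatment is set against the vehicle group and given as a quotient.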

[1] = dose: 50.0 mg/kg/injection, schedule: Q01DX009 (ip), vehicle: saline with Tween-80
[2] = dose: 100.0 mg/kg/injection, schedule: Q01DX009 (ip), vehicle: saline with Tween-80
[3] = dose: 200.0 mg/kg/injection, schedule: Q01DX009 (ip), vehicle: saline with Tween-80
[4] = dose: 6.25 mg/kg/injection, schedule: Q01DX009 (ip), vehicle: water
[5] = dose: 12.5 mg/kg/injection, schedule: Q01DX009 (ip), vehicle: water
[6] = dose: 25.0 mg/kg/injection, schedule: Q01DX009 (ip), vehicle: water
[7] = dose: 100.0 mg/kg/injection, schedule: Q04DX003 (ip), vehicle: Klucel (hydroxypropylcellulose) (HPC)
[8] = dose: 200.0 mg/kg/injection, schedule: Q04DX003 (ip), vehicle: Klucel (hydroxypropylcellulose) (HPC)
[9] = dose: 400.0 mg/kg/injection, schedule: Q04DX003 (ip), vehicle: Klucel (hydroxypropylcellulose) (HPC)
[10] = dose: 6.25 mg/kg/injection, schedule: Q01DX009 (ip), vehicle: saline
[11] = dose: 100.0 mg/kg/injection, schedule: Q04DX003 (ip), vehicle: saline with Tween-80
[12] = dose: 200.0 mg/kg/injection, schedule: Q04DX003 (ip), vehicle: saline with Tween-80
[13] = dose: 400.0 mg/kg/injection, schedule: Q04DX003 (ip), vehicle: saline with Tween-80
[14] = dose: 25.0 mg/kg/injection, schedule: Q01DX009 (ip), vehicle: saline with Tween-80
[15] = dose: 50.0 mg/kg/injection, schedule: Q01DX009 (ip), vehicle: saline
[16] = dose: 50.0 mg/kg/injection, schedule: Q04DX003 (ip), vehicle: saline
[17] = dose: 100.0 mg/kg/injection, schedule: Q01DX009 (ip), vehicle: saline
[18] = dose: 200.0 mg/kg/injection, schedule: Q01DX009 (ip), vehicle: saline
[19] = dose: 200.0 mg/kg/injection, schedule: Q04DX003 (ip), vehicle: saline
[20] = dose: 100.0 mg/kg/injection, schedule: Q04DX003 (ip), vehicle: saline
[21] = dose: 400.0 mg/kg/injection, schedule: Q04DX003 (ip), vehicle: saline
[22] = dose: 400.0 mg/kg/injection, schedule: Q01DX009 (ip), vehicle: saline with Tween-80

Measured: T/C

Cn1cnc(C(N)=S)c1N
inactive: dose: 75.0 mg/kg/injection, schedule: Q04DX003 (ip), vehicle: saline 112 % of control | dose: 100.0 mg/kg/injection, schedule: Q01DX001 (ip), vehicle: Klucel (hydroxypropylcellulose) (HPC) 100 % of control | dose: 150.0 mg/kg/injection, schedule: Q04DX003 (ip), vehicle: saline 100 % of control | dose: 200.0 mg/kg/injection, schedule: Q01DX001 (ip), vehicle: Klucel (hydroxypropylcellulose) (HPC) 95 % of control | dose: 300.0 mg/kg/injection, schedule: Q04DX003 (ip), vehicle: saline 112 % of control | dose: 400.0 mg/kg/injection, schedule: Q01DX001 (ip), vehicle: Klucel (hydroxypropylcellulose) (HPC) 100 % of control

COc1cc2c(c(OC)c1OC)-c1ccc(OC)c(=O)cc1[C@@H](NC(=O)C(F)(F)F)CC2
active: dose: 0.09 mg/kg/injection, schedule: Q01DX009 (ip), vehicle: Klucel (hydroxypropylcellulose) (HPC) 155 % of control | dose: 0.18 mg/kg/injection, schedule: Q01DX009 (ip), vehicle: Klucel (hydroxypropylcellulose) (HPC) 171 % of control | dose: 0.39 mg/kg/injection, schedule: Q01DX009 (ip), vehicle: Klucel (hydroxypropylcellulose) (HPC) 245 % of control

O=C1/C(=C/c2ccc(Cl)cc2)SC(=S)N1CCCN1CCOCC1
inactive: [1] 91 % of control | [2] 88 % of control | [3] 91 % of control

CCCCCCCCCCCC(=O)NC1CC(O[C@H]2C[C@](O)(C(=O)CO)Cc3c(O)c4c(c(O)c32)C(=O)c2c(OC)cccc2C4=O)OC(C)C1O (some centres undefined)
active: dose: 3.13 mg/kg/injection, schedule: Q01DX009 (ip), vehicle: water 159 % of control | [4] 168 % of control | [5] 240 % of control | [6] 159 % of control
inactive: dose: 0.78 mg/kg/injection, schedule: Q01DX009 (ip), vehicle: water 113 % of control

Cc1c([N+](=O)[O-])c(C)c([N+](=O)[O-])c(C(C)(C)C)c1[N+](=O)[O-]
inactive: dose: 100.0 mg/kg/injection, schedule: Q01DX009 (ip), vehicle: Klucel (hydroxypropylcellulose) (HPC) 100 % of control | [7] 87 % of control | dose: 200.0 mg/kg/injection, schedule: Q01DX009 (ip), vehicle: Klucel (hydroxypropylcellulose) (HPC) 87 % of control | [8] 87 % of control | dose: 400.0 mg/kg/injection, schedule: Q01DX009 (ip), vehicle: Klucel (hydroxypropylcellulose) (HPC) 95 % of control | [9] 91 % of control

COC1OC(COC(C)=O)C(OC(C)=O)C(OC(C)=O)[CH]1[Hg][O]C(C)=O (centres undefined)
inactive: dose: 3.13 mg/kg/injection, schedule: Q01DX009 (ip), vehicle: saline 95 % of control | [10] 114 % of control

CC(=O)C1CCC=C2C1CC1CC2C1(C)C (centres undefined)
inactive: [7] 100 % of control | [8] 109 % of control | [9] 104 % of control

CO[C@H]1C[C@H](O[C@H]2CC[C@]3(C=O)[C@H]4CC[C@]5(C)[C@@H](C6=CC(=O)OC6)CC[C@]5(O)[C@@H]4CC[C@]3(O)C2)O[C@H](C)[C@H]1O[C@@H]1O[C@H](CO[C@@H]2O[C@H](CO)[C@@H](O)[C@H](O)[C@H]2O)[C@@H](O)[C@H](O)[C@H]1O
inactive: dose: 0.5 mg/kg/injection, schedule: Q01DX010 (ip), vehicle: saline 115 % of control | dose: 1.0 mg/kg/injection, schedule: Q01DX010 (ip), vehicle: saline 110 % of control

CCOc1ccccc1CC(=O)O
inactive: [11] 100 % of control | [12] 100 % of control | [13] 104 % of control

O=c1onc(-c2ccc(Cl)cc2)c2ccccc12
inactive: [14] 105 % of control | [1] 94 % of control | [2] 102 % of control

CC/C=N/NC(N)=S
inactive: dose: 3.13 mg/kg/injection, schedule: Q01DX009 (ip), vehicle: saline with Tween-80 94 % of control | dose: 6.25 mg/kg/injection, schedule: Q01DX009 (ip), vehicle: saline with Tween-80 94 % of control | dose: 12.5 mg/kg/injection, schedule: Q01DX009 (ip), vehicle: saline with Tween-80 94 % of control

O=C(NC12CC3CC(CC(C3)C1)C2)Oc1ccccc1
inactive: [1] 102 % of control | [2] 102 % of control | [3] 93 % of control

C#CCOCC1CN(C)C(=O)O1 (centres undefined)
inactive: dose: 25.0 mg/kg/injection, schedule: Q01DX009 (ip), vehicle: saline 104 % of control | [15] 100 % of control | [16] 91 % of control | [17] 100 % of control | [18] 100 % of control | [19] 100 % of control

COc1ccc(C(Br)C(Br)C(=O)c2ccc3c(c2)OCO3)cc1OC (centres undefined)
inactive: dose: 25.0 mg/kg/injection, schedule: Q04DX003 (ip), vehicle: saline 104 % of control | [16] 90 % of control | [20] 113 % of control | [19] 97 % of control | [21] 90 % of control | dose: 600.0 mg/kg/injection, schedule: Q04DX003 (ip), vehicle: saline 119 % of control

Cn1nnc2nnc(-c3ccccc3)n21
inactive: [2] 100 % of control | [11] 100 % of control | [3] 103 % of control | [12] 100 % of control | [13] 95 % of control

N=C(N)N1CCNc2ccccc2C1
inactive: [11] 99 % of control

Cc1c(Cl)c(Cl)c(Cl)c(Cl)c1Cl
inactive: [2] 118 % of control | [11] 104 % of control | [3] 95 % of control | [12] 104 % of control | [22] 95 % of control | [13] 95 % of control

CCOC(=O)CNC(=O)NC12CC3CC(CC(C3)C1)C2
inactive: [17] 119 % of control | [18] 104 % of control | dose: 400.0 mg/kg/injection, schedule: Q01DX009 (ip), vehicle: saline 102 % of control

CCOC(=O)C(C(=O)OCC)=C(C)C
active: [22] 150 % of control
inactive: [7] 100 % of control | [8] 88 % of control | [9] 103 % of control

CC(=O)OC1CCC2(C)C3CCC4(C)C(O)CCC4C3CC(O)C2(O)C1 (centres undefined)
inactive: [15] 103 % of control | [17] 88 % of control | [18] 107 % of control

CC(C)CCNc1ncnc2c1cnn2C
inactive: [14] 100 % of control | [1] 100 % of control | [2] 109 % of control

O=CN1CCCC1C(=O)O (centres undefined)
inactive: [4] 103 % of control | [5] 99 % of control | [6] 96 % of control | dose: 50.0 mg/kg/injection, schedule: Q01DX009 (ip), vehicle: water 94 % of control

CC(=O)Nc1onc(C)c1N
inactive: [15] 90 % of control | [17] 100 % of control | [18] 95 % of control

Nc1nc(N)c2cc(CNc3ccc(C(=O)NC(CC(=O)O)C(=O)O)cc3)ccc2n1 (centres undefined)
active: dose: 0.38 mg/kg/injection, schedule: Q01DX009 (ip), vehicle: saline 154 % of control | dose: 0.5 mg/kg/injection, schedule: Q01DX009 (ip), vehicle: saline 183 % of control | dose: 1.0 mg/kg/injection, schedule: Q04DX003 (ip), vehicle: saline sonified 213 % of control | dose: 2.0 mg/kg/injection, schedule: Q04DX003 (ip), vehicle: saline sonified 204 % of control | dose: 5.5 mg/kg/injection, schedule: Q04DX003 (ip), vehicle: saline sonified 161 % of control | dose: 8.25 mg/kg/injection, schedule: Q04DX003 (ip), vehicle: saline sonified 177 % of control
inactive: dose: 0.11 mg/kg/injection, schedule: Q01DX009 (ip), vehicle: saline 112 % of control | [10] 95 % of control | dose: 25.0 mg/kg/injection, schedule: Q04DX003 (ip), vehicle: saline sonified 96 % of control

O=C(O)C1(c2ccccc2)CC1
inactive: [2] 109 % of control | [3] 90 % of control | [22] 90 % of control

O=C(Cn1ccc(=O)[nH]c1=O)N1CCC2(CC1)SSC1(CCN(C(=O)Cn3ccc(=O)[nH]c3=O)CC1)S2
inactive: [20] 100 % of control | [19] 109 % of control | [21] 90 % of control

O=C1OC(c2ccccc2)=N/C1=C\c1cccc(Br)c1
inactive: dose: 50.0 mg/kg/injection, schedule: Q04DX002 (ip), vehicle: saline with Tween-80 99 % of control | dose: 100.0 mg/kg/injection, schedule: Q04DX002 (ip), vehicle: saline with Tween-80 105 % of control | dose: 200.0 mg/kg/injection, schedule: Q04DX002 (ip), vehicle: saline with Tween-80 89 % of control
